Laboratory results published in patent publication US7531540B2, “Phthalazinone-piperidino-derivatives as PDE4 inhibitors” (Nycomed GmbH, priority 2001, dated 2009).
Structures can show the parent of a compound that is named as a salt.

Columns and labels:
PDE4 = assay: Inhibition of PDE4 activity ([3H]cAMP hydrolysis, cytosol from human neutrophils); type: biochemical; conditions: 0.5 μM cAMP, Motapizone (1 μM) included to suppress PDE3 activity, 15 min at 37° C.
Description: Method for Measuring Inhibition of PDE4 Activity
PDE4 activity was determined as described by Thompson et al. (Adv Cycl Nucl Res 10: 69-92, 1979) with some modifications (Bauer and Schwabe, Naunyn-Schmiedeberg's Arch Pharmacol 311: 193-198, 1980). At a final assay volume of 200 μl (96 well microtiter plates) the assay mixture contained 20 mM Tris (pH 7.4), 5 mM MgCl2, 0.5 μM cAMP, [^3H]cAMP (about 30,000 cpm/assay), the test compound and an aliquot of cytosol from human neutrophils which mainly contains PDE4 activity as described by Schudt et al. (Naunyn-Schmiedeberg's Arch Pharmacol 344: 682-690, 1991); the PDE3-specific inhibitor Motapizone (1 μM) was included to suppress PDE3 activity originating from contaminating platelets. Serial dilutions of the compounds were prepared in DMSO and further diluted 1:100 (v/v) in the assays to obtain the desired final concentrations of the inhibitors at a DMSO concentration of 1% (v/v) which by itself only slightly affected PDE4 activity.
After preincubation for 5 min at 37° C., the reaction was started by the addition of substrate (cAMP) and the assays were incubated for further 15 min at 37° C. 50 μl of 0.2 N HCl was added to stop the reaction and the assays were left on ice for about 10 min. Following incubation with 25 μg 5′-nucleotidase (Crotalus atrox snake venom) for 10 min at 37° C., the assays were loaded on QAE Sephadex A-25 (1 ml bed volume). The columns were eluted with 2 ml of 30 mM ammonium formiate (pH 6.0) and the eluate was counted for radioactivity. Results were corrected for blank values (measured in the presence of denatured protein) which were below 5% of total radioactivity. […] The IC50 -values for the compounds according to the invention for the inhibition of the PDE4 activity were determined from the concentration-inhibition curves by nonlinear-regression.
The inhibitory values determined for the compounds according to the invention follow from the following table A, in which the numbers of the compounds correspond to the numbers of the examples.

| melting point | Compound | Inhibition of PDE4 acitivity [measured as -logIC50 (mol/l)] (PDE4) |
| --- | --- | --- |
| 66 to 68 °C | CCOc1ccc(C2=NN(C3CCN(C(=O)c4ccncc4)CC3)C(=O)[C@@H]3CC=CC[C@H]23)cc1OCC.Cl | – |
| – | COc1ccc(C2=NN(C3CCN(C(=O)NC(C)(C)C)CC3)C(=O)[C@H]3CC=CC[C@@H]23)c2c1OC(C)(C)C2 (relative stereo) [compound 9, (cis)-4-[4-(7-Methoxy-2,2-dimethyl-2,3-dihydro-benzofuran-4-yl)-1-oxo-4a,5,8,8a-tetrahydro-1H-phthalazin-2-yl]-piperidine-1-carboxylic acid tert-butylamide] | 10.65 |
| 99 to 101 °C | CCOc1ccc(C2=NN(C3CCN(S(=O)(=O)c4ccc(C)cc4)CC3)C(=O)[C@@H]3CC=CC[C@H]23)cc1OCC [compound 1, (4aS,8aR)-4-(3,4-Diethoxyphenyl)-2-[1-(toluene-4-sulfonyl)-piperidin-4-yl]-4a,5,8,8a-tetrahydro-2H-phthalazin-1-one] | – |
| 133 to 135 °C | CCOc1ccc(C2=NN(C3CCN(C(=O)CCCC(=O)O)CC3)C(=O)[C@@H]3CC=CC[C@H]23)cc1OCC [compound 4, 5-{4-[(4aS,8aR)-4-(3,4-Diethoxy-phenyl)-1-oxo-4a,5,8,8a-tetrahydro-1H-phthalazin-2-yl]-piperidin-1-yl}-5-oxo-pentanoic acid] | – |
| 145 to 148 °C | CCOc1ccc(C2=NN(C3CCN(C(=O)NC(C)(C)C)CC3)C(=O)[C@@H]3CC=CC[C@H]23)cc1OCC [compound 6, 4-[(4aS,8aR)-4-(3,4-Diethoxyphenyl)-1-oxo-4a,5,8,8a-tetrahydro-1H-phthalazin-2-yl]-piperidine-1-carboxylic acid tert-butylamide] | – |
| – | CCOc1ccc(C2=NN(C3CCN(C(=O)Nc4ccccc4)CC3)C(=O)[C@@H]3CC=CC[C@H]23)cc1OCC [compound 7, 4-[(4aS,8aR)-4-(3,4-Diethoxyphenyl)-1-oxo-4a,5,8,8a-tetrahydro-1H-phthalazin-2-yl]-piperidine-1-carboxylic acid phenylamide] | 10.28 |
| – | COc1ccc(C2=NN(C3CCN(C(=O)NC(C)(C)C)CC3)C(=O)[C@@H]3CC=CC[C@H]23)cc1OC [compound 8, 4-[(4aS,8aR)-4-(3,4-Dimethoxyphenyl)-1-oxo-4a,5,8,8a-tetrahydro-1H-phthalazin-2-yl]-piperidine-1-carboxylic acid tert-butylamide] | 10.18 |
| – | COc1ccc(C2=NN(C3CCN(S(=O)(=O)c4cccc5c(N(C)C)cccc45)CC3)C(=O)[C@@H]3CC=CC[C@H]23)cc1OC [compound 10, (4aS,8aR)-4-(3,4-Dimethoxyphenyl)-2-[1-(5-dimethylamino-naphthalene-1-sulfonyl)-piperidin-4-yl]-4a,5,8,8a-tetrahydro-2H-phthalazin-1-one] | 9.57 |
| 196 to 197 °C | COc1ccc(C2=NN(C3CCN(c4ccc([N+](=O)[O-])cc4)CC3)C(=O)[C@@H]3CC=CC[C@H]23)cc1OC [compound 11, (4aS,8aR)-4-(3,4-Dimethoxyphenyl)-2-[1-(4-nitro-phenyl)-piperidin-4-yl]-4a,5,8,8a-tetrahydro-2H-phthalazin-1-one] | 10.34 |
| 196 to 197 °C | COc1ccc(C2=NN(C3CCN(Cc4ccncc4)CC3)C(=O)[C@@H]3CC=CC[C@H]23)cc1OC [compound 12, (4aS,8aR)-4-(3,4-Dimethoxyphenyl)-2-(1-pyridin-4-ylmethyl-piperidin-4-yl)-4a,5,8,8a-tetrahydro-2H-phthalazin-1-one] | 10.79 |
| 184 to 185 °C | COc1ccc(C2=NN(C3CCN(C(=O)N4CCOCC4)CC3)C(=O)[C@@H]3CC=CC[C@H]23)cc1OC [compound 13, (4aS,8aR)-4-(3,4-Dimethoxyphenyl)-2-[1-(morpholine-4-carbonyl)-piperidin-4-yl]-4a,5,8,8a-tetrahydro-2H-phthalazin-1-one] | 10.03 |
| 206 °C (dec.) | COc1ccc(C2=NN(C3CCN(CC(=O)c4cc(Cl)c(N)c(Cl)c4)CC3)C(=O)[C@@H]3CC=CC[C@H]23)cc1OC.Cl [compound 14, (4aS,8aR)-2-{1-[2-(4-Amino-3,5-dichloro-phenyl)-2-oxo-ethyl]-piperidin-4-yl}-4-(3,4-dimethoxy-phenyl)-4a,5,8,8a-tetrahydro-2H-phthalazin-1-one hydrochloride] | 10.33 |
| 219 to 220 °C | COc1ccc(C2=NN(C3CCN(c4ncnc5sccc45)CC3)C(=O)[C@@H]3CC=CC[C@H]23)cc1OC [compound 16, (4aS,8aR)-4-(3,4-Dimethoxyphenyl)-2-(1-thieno[2,3-d]pyrimidin-4-yl-piperidin-4-yl)-4a,5,8,8a-tetrahydro-2H-phthalazin-1-one] | 10.50 |
| – | COc1ccc(C2=NN(C3CCN(c4ncccn4)CC3)C(=O)[C@@H]3CC=CC[C@H]23)cc1OC [compound 17, (4aS,8aR)-4-(3,4-Dimethoxyphenyl)-2-(1-pyrimidin-2-yl-piperidin-4-yl)-4a,5,8,8a-tetrahydro-2H-phthalazin-1-one] | 10.51 |
| – | COc1ccc(C2=NN(C3CCN(CC(=O)N4CCOCC4)CC3)C(=O)[C@@H]3CC=CC[C@H]23)cc1OC.Cl [compound 20, (4aS,8aR)-4-(3,4-Dimethoxyphenyl)-2-[1-(2-morpholin-4-yl-2-oxo-ethyl)-piperidin-4-yl]-4a,5,8,8a-tetrahydro-2H-phthalazin-1-one hydrochloride] | 10.40 |
| – | COc1ccc(C2=NN(C3CCN(CCc4ccccc4)CC3)C(=O)[C@@H]3CC=CC[C@H]23)cc1OC.Cl [compound 21, (4aS,8aR)-4-(3,4-Dimethoxyphenyl)-2-(1-phenethyl-piperidin-4-yl)-4a,5,8,8a-tetrahydro-2H-phthalazin-1-one hydrochloride] | 9.69 |
| – | CCOc1ccc(C2=NN(C3CCN(C(=O)N4CCOCC4)CC3)C(=O)[C@@H]3CC=CC[C@H]23)cc1OCC [compound 22, (4aS,8aR)-4-(3,4-Diethoxyphenyl)-2-[1-(morpholine-4-carbonyl)-piperidin-4-yl]-4a,5,8,8a-tetrahydro-2H-phthalazin-1-one] | 9.37 |
| – | COc1ccc(C2=NN(C3CCN(Cc4cccnc4)CC3)C(=O)[C@@H]3CC=CC[C@H]23)cc1OC.Cl.Cl [compound 23, (4aS,8aR)-4-(3,4-Dimethoxyphenyl)-2-(1-pyridin-3-ylmethyl-piperidin-4-yl)-4a,5,8,8a-tetrahydro-2H-phthalazin-1-one dihydrochloride] | 10.80 |
| – | CCOc1ccc(C2=NN(C3CCN(C(=O)CN4CCOCC4)CC3)C(=O)[C@@H]3CC=CC[C@H]23)cc1OCC.Cl [compound 25, (4aS,8aR)-4-(3,4-Diethoxyphenyl)-2-[1-(2-morpholin-4-yl-ethanoyl)-piperidin-4yl]-4a,5,8,8a-tetrahydro-2H-phthalazin-1-one hydrochloride] | 10.19 |
| – | COc1ccc(C2=NN(C3CCN(CC(=O)NC(C)C)CC3)C(=O)C3CC=CCC23)cc1OC [compound 27, 2-{4-[(4aS,8aR)-4-(3,4-Dimethoxyphenyl)-1-oxo-4a,5,8,8a-tetrahydro-1H-phthalazin-2-yl]-piperidin-1-yl}-2H-isopropyl-acetamide] | 10.37 |
| – | COc1ccc(C2=NN(C3CCN(Cc4ccc(-c5csnn5)cc4)CC3)C(=O)[C@@H]3CC=CC[C@H]23)cc1OC.Cl.Cl [compound 28, (4aS,8aR)-4-(3,4-Dimethoxyphenyl)-2-[1-(4-1,2,3-thiadiazol-4-yl-benzyl)-piperidin-4-yl]-4a,5,8,8a-tetrahydro-2H-phthalazin-1-one dihydrochloride] | 10.24 |
| – | CCN1CCN(C(=O)N2CCC(N3N=C(c4ccc(OC)c(OC)c4)[C@H]4CC=CC[C@H]4C3=O)CC2)C(=O)C1=O [compound 29, 1-(1-{4-[(4aS,8aR)-4-(3,4-Dimethoxyphenyl)-1-oxo-4a,5,8,8a-tetrahydro-1H-phthalazin-2-yl]-piperidin-1-yl}-methanoyl)-4-ethyl-piperazine-2,3-dione] | 10.87 |
| – | COc1ccc(C2=NN(C3CCN(CC(N)=O)CC3)C(=O)C3CC=CCC23)cc1OC [compound 31, 2-{4-[(4aS,8aR)-4-(3,4-Dimethoxyphenyl)-1-oxo-4a,5,8,8a-tetrahydro-1H-phthalazin-2-yl]-piperidin-1-yl}-2H-acetamide hydrochloride] | 9.20 |
